Measured values reported in the supplement of paper PMC10307832.

Assays:
Experiment in all cases: relative viability (nuclei count vs DMSO), 5 days (fraction); higher = more cells survive
NCI-H2405 = system: NCI-H2405
Method in brief: (§1)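 Relative viability was taken as the ratio of nuclei in treated wells to nuclei in vehicle wells. Lung cancer cell lines in 1536-well plates received compounds by pin tool one day after seeding, either one drug alone or a fixed anchor-drug dose plus five library-drug doses (not always all listed) in √10 steps. Nuclei were counted on 4× images after 5 days of treatment, and values are medians of duplicate plates.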

LC-2-ad = system: LC-2-ad
Method in brief: as §1

HCC-366 = system: HCC-366
Method in brief: as §1

NCI-H2228 = system: NCI-H2228
Method in brief: as §1

NCI-H2347 = system: NCI-H2347
Method in brief: as §1

CAL-12T = system: CAL-12T
Method in brief: as §1

NCI-H1734 = system: NCI-H1734
Method in brief: as §1

SW 1573 = system: SW 1573
Method in brief: as §1

LK-2 = system: LK-2
Method in brief: as §1

NCI-H1993 = system: NCI-H1993
Method in brief: as §1

NCI-H596 = system: NCI-H596
Method in brief: as §1

SK-MES-1 = system: SK-MES-1
Method in brief: as §1

NCI-H2009 = system: NCI-H2009
Method in brief: as §1

RERF-LC-KJ = system: RERF-LC-KJ
Method in brief: as §1

PC-14 = system: PC-14
Method in brief: as §1

HCC-78 = system: HCC-78
Method in brief: as §1

NCI-H2085 = system: NCI-H2085
Method in brief: as §1

EMC-BAC-2 = system: EMC-BAC-2
Method in brief: as §1

NCI-H1355 = system: NCI-H1355
Method in brief: as §1

NCI-H3122 = system: NCI-H3122
Method in brief: as §1

NCI-H838 = system: NCI-H838
Method in brief: as §1

HOP-62 = system: HOP-62
Method in brief: as §1

ChaGo-K-1 = system: ChaGo-K-1
Method in brief: as §1

Question: For `Cc1cnc(-c2cnc(NCCNc3ccc(C#N)cn3)nc2-c2ccc(Cl)cc2Cl)[nH]1` + N=C(N)NC(=N)NCCc1ccccc1 [Phenformin] (partner 250 µM), which relative viability (NCI-H2405; first compound 0.08 µM) is on record?
Answer: The relative viability was 0.385.

Question: What about the relative viability (NCI-H2405; first compound 0.253 µM) of the same compound?
Answer: Its relative viability is 0.418.

Question: And the relative viability (NCI-H2405; first compound 0.8 µM)?
Answer: The relative viability was 0.398.

Question: What about the relative viability (NCI-H2405; first compound 2.53 µM) of the same compound?
Answer: Its relative viability is 0.358.

Question: What about the relative viability (LC-2-ad; first compound 0.08 µM) of the same compound?
Answer: The relative viability was 0.591.

Question: And the relative viability (LC-2-ad; first compound 0.253 µM)?
Answer: Its relative viability is 0.515.

Question: What about the relative viability (LC-2-ad; first compound 2.53 µM) of the same compound?
Answer: Its relative viability is 0.487.

Question: What about the relative viability (HCC-366; first compound 0.08 µM) of the same compound?
Answer: Its relative viability is 0.606.

Question: And the relative viability (HCC-366; first compound 0.253 µM)?
Answer: The relative viability was 0.455.

Question: What about the relative viability (HCC-366; first compound 0.8 µM) of the same compound?
Answer: The relative viability was 0.557.

Question: What about the relative viability (HCC-366; first compound 2.53 µM) of the same compound?
Answer: Its relative viability is 0.507.

Question: What about the relative viability (NCI-H2228; first compound 0.08 µM) of the same compound?
Answer: Its relative viability is 0.256.

Question: And the relative viability (NCI-H2228; first compound 0.253 µM)?
Answer: Its relative viability is 0.357.

Question: And the relative viability (NCI-H2228; first compound 0.8 µM)?
Answer: Its relative viability is 0.366.

Question: And the relative viability (NCI-H2228; first compound 2.53 µM)?
Answer: Its relative viability is 0.228.

Question: And the relative viability (NCI-H2347; first compound 0.08 µM)?
Answer: The relative viability was 0.425.

Question: What about the relative viability (NCI-H2347; first compound 0.253 µM) of the same compound?
Answer: Its relative viability is 0.5.

Question: And the relative viability (NCI-H2347; first compound 0.8 µM)?
Answer: Its relative viability is 0.397.

Question: And the relative viability (NCI-H2347; first compound 2.53 µM)?
Answer: Its relative viability is 0.477.

Question: What about the relative viability (CAL-12T; first compound 0.08 µM) of the same compound?
Answer: The relative viability was 0.655.

Question: And the relative viability (CAL-12T; first compound 0.253 µM)?
Answer: The relative viability was 0.511.

Question: And the relative viability (CAL-12T; first compound 0.8 µM)?
Answer: The relative viability was 0.597.

Question: And the relative viability (CAL-12T; first compound 2.53 µM)?
Answer: Its relative viability is 0.579.

Question: And the relative viability (NCI-H1734; first compound 0.08 µM)?
Answer: Its relative viability is 0.49.

Question: And the relative viability (NCI-H1734; first compound 0.253 µM)?
Answer: The relative viability was 0.379.

Question: And the relative viability (NCI-H1734; first compound 0.8 µM)?
Answer: The relative viability was 0.391.

Question: What about the relative viability (NCI-H1734; first compound 2.53 µM) of the same compound?
Answer: The relative viability was 0.355.

Question: And the relative viability (SW 1573; first compound 0.08 µM)?
Answer: The relative viability was 0.515.

Question: What about the relative viability (SW 1573; first compound 0.253 µM) of the same compound?
Answer: Its relative viability is 0.334.

Question: And the relative viability (SW 1573; first compound 0.8 µM)?
Answer: Its relative viability is 0.436.

Question: What about the relative viability (SW 1573; first compound 2.53 µM) of the same compound?
Answer: Its relative viability is 0.3.

Question: And the relative viability (LK-2; first compound 0.08 µM)?
Answer: Its relative viability is 0.549.

Question: And the relative viability (LK-2; first compound 0.253 µM)?
Answer: The relative viability was 0.501.

Question: What about the relative viability (LK-2; first compound 0.8 µM) of the same compound?
Answer: The relative viability was 0.379.

Question: What about the relative viability (LK-2; first compound 2.53 µM) of the same compound?
Answer: Its relative viability is 0.641.

Question: What about the relative viability (NCI-H1993; first compound 0.08 µM) of the same compound?
Answer: Its relative viability is 0.493.

Question: What about the relative viability (NCI-H1993; first compound 0.253 µM) of the same compound?
Answer: The relative viability was 0.477.

Question: What about the relative viability (NCI-H1993; first compound 0.8 µM) of the same compound?
Answer: The relative viability was 0.521.

Question: And the relative viability (NCI-H1993; first compound 2.53 µM)?
Answer: The relative viability was 0.535.

Question: And the relative viability (NCI-H596; first compound 0.08 µM)?
Answer: The relative viability was 0.834.

Question: What about the relative viability (NCI-H596; first compound 0.253 µM) of the same compound?
Answer: The relative viability was 0.763.

Question: What about the relative viability (NCI-H596; first compound 0.8 µM) of the same compound?
Answer: The relative viability was 0.595.

Question: What about the relative viability (NCI-H596; first compound 2.53 µM) of the same compound?
Answer: Its relative viability is 0.761.

Question: What about the relative viability (SK-MES-1; first compound 0.08 µM) of the same compound?
Answer: The relative viability was 0.643.

Question: What about the relative viability (SK-MES-1; first compound 0.253 µM) of the same compound?
Answer: The relative viability was 0.648.

Question: What about the relative viability (SK-MES-1; first compound 0.8 µM) of the same compound?
Answer: The relative viability was 0.72.

Question: What about the relative viability (SK-MES-1; first compound 2.53 µM) of the same compound?
Answer: Its relative viability is 0.584.

Question: And the relative viability (NCI-H2009; first compound 0.08 µM)?
Answer: The relative viability was 0.499.

Question: What about the relative viability (NCI-H2009; first compound 0.253 µM) of the same compound?
Answer: The relative viability was 0.442.

Question: And the relative viability (NCI-H2009; first compound 0.8 µM)?
Answer: Its relative viability is 0.489.

Question: What about the relative viability (NCI-H2009; first compound 2.53 µM) of the same compound?
Answer: The relative viability was 0.271.

Question: What about the relative viability (RERF-LC-KJ; first compound 0.08 µM) of the same compound?
Answer: The relative viability was 0.436.

Question: And the relative viability (RERF-LC-KJ; first compound 0.253 µM)?
Answer: Its relative viability is 0.445.

Question: What about the relative viability (RERF-LC-KJ; first compound 0.8 µM) of the same compound?
Answer: Its relative viability is 0.426.

Question: What about the relative viability (RERF-LC-KJ; first compound 2.53 µM) of the same compound?
Answer: Its relative viability is 0.354.

Question: What about the relative viability (PC-14; first compound 0.08 µM) of the same compound?
Answer: The relative viability was 0.586.

Question: And the relative viability (PC-14; first compound 0.253 µM)?
Answer: The relative viability was 0.413.

Question: What about the relative viability (PC-14; first compound 0.8 µM) of the same compound?
Answer: Its relative viability is 0.568.

Question: What about the relative viability (PC-14; first compound 2.53 µM) of the same compound?
Answer: Its relative viability is 0.421.

Question: What about the relative viability (HCC-78; first compound 0.08 µM) of the same compound?
Answer: The relative viability was 0.804.

Question: And the relative viability (HCC-78; first compound 0.253 µM)?
Answer: Its relative viability is 0.675.

Question: What about the relative viability (HCC-78; first compound 0.8 µM) of the same compound?
Answer: Its relative viability is 0.636.

Question: What about the relative viability (HCC-78; first compound 2.53 µM) of the same compound?
Answer: Its relative viability is 0.645.

Question: And the relative viability (NCI-H2085; first compound 0.08 µM)?
Answer: The relative viability was 0.735.

Question: And the relative viability (NCI-H2085; first compound 0.253 µM)?
Answer: The relative viability was 0.688.

Question: And the relative viability (NCI-H2085; first compound 0.8 µM)?
Answer: Its relative viability is 0.686.

Question: What about the relative viability (NCI-H2085; first compound 2.53 µM) of the same compound?
Answer: Its relative viability is 0.691.

Question: What about the relative viability (EMC-BAC-2; first compound 0.08 µM) of the same compound?
Answer: The relative viability was 0.578.

Question: What about the relative viability (EMC-BAC-2; first compound 0.253 µM) of the same compound?
Answer: Its relative viability is 0.507.

Question: And the relative viability (EMC-BAC-2; first compound 0.8 µM)?
Answer: Its relative viability is 0.542.

Question: And the relative viability (EMC-BAC-2; first compound 2.53 µM)?
Answer: Its relative viability is 0.467.

Question: And the relative viability (NCI-H1355; first compound 0.08 µM)?
Answer: The relative viability was 0.476.

Question: What about the relative viability (NCI-H1355; first compound 0.253 µM) of the same compound?
Answer: Its relative viability is 0.45.

Question: And the relative viability (NCI-H1355; first compound 0.8 µM)?
Answer: Its relative viability is 0.479.

Question: And the relative viability (NCI-H1355; first compound 2.53 µM)?
Answer: The relative viability was 0.446.

Question: And the relative viability (NCI-H3122; first compound 0.08 µM)?
Answer: Its relative viability is 0.367.

Question: And the relative viability (NCI-H3122; first compound 0.8 µM)?
Answer: The relative viability was 0.383.

Question: What about the relative viability (NCI-H3122; first compound 2.53 µM) of the same compound?
Answer: The relative viability was 0.327.

Question: And the relative viability (NCI-H838; first compound 0.08 µM)?
Answer: Its relative viability is 0.634.

Question: And the relative viability (NCI-H838; first compound 0.253 µM)?
Answer: The relative viability was 0.601.

Question: And the relative viability (NCI-H838; first compound 0.8 µM)?
Answer: The relative viability was 0.594.

Question: And the relative viability (NCI-H838; first compound 2.53 µM)?
Answer: The relative viability was 0.709.

Question: What about the relative viability (HOP-62; first compound 0.08 µM) of the same compound?
Answer: Its relative viability is 0.754.

Question: What about the relative viability (HOP-62; first compound 0.253 µM) of the same compound?
Answer: The relative viability was 0.596.

Question: And the relative viability (HOP-62; first compound 0.8 µM)?
Answer: Its relative viability is 0.685.

Question: And the relative viability (HOP-62; first compound 2.53 µM)?
Answer: The relative viability was 0.427.

Question: And the relative viability (ChaGo-K-1; first compound 0.08 µM)?
Answer: Its relative viability is 0.493.

Question: And the relative viability (ChaGo-K-1; first compound 0.253 µM)?
Answer: The relative viability was 0.375.

Question: And the relative viability (ChaGo-K-1; first compound 0.8 µM)?
Answer: Its relative viability is 0.44.

Question: And the relative viability (ChaGo-K-1; first compound 2.53 µM)?
Answer: The relative viability was 0.413.
